{"source": "patent US20240382495A1", "about": "“COMBINATIONS OF COPANLISIB WITH ANTI-PD-1 ANTIBODY” (BAYER PHARMA AKTIENGESELLSCHAFT, priority 2023, published 2024)", "key": {"[1]": {"tested_on": "A20 diffuse large B cell lymphoma", "test": "Anti-tumor efficacy in DLBCL syngeneic A20 mouse model", "format": "in vivo", "settings": "monotherapy; Cpd A 14 mg/kg, Cpd B 200 μg/mouse, intravenously; vs vehicle control group", "protocol": "(§1) Experimental Methods A20 diffuse large B cell lymphoma and CT26 colorectal cancer cells were maintained in vitro in cell cultural medium supplemented with serum (according to the instructions for each corresponding cell lines) at 37° C. in an atmosphere of 5% CO2 in air. The tumor cells were routinely subcultured twice weekly. The cells in an exponential growth phase were harvested and counted for tumor inoculation. To investigate anti-tumor efficacy and mechanisms of action in vivo, each mouse was inoculated subcutaneously at the right lower flank region with tumor cells (1×10^5-2×10^6 depending on the cell lines) in 0.1 ml of PBS with or without metrigel for tumor development. Before commencement of treatment, all animals were weighed and the tumor volumes were measured using a caliper. […]\n(§2) Tumor volumes were measured 2-3 times weekly in two dimensions using a caliper, and the volume was expressed in mm^3 using the formula: V=0.5 a x b2 where a and b are the long and short diameters of the tumor, respectively. Tumor weight was measured at study termination. […]\nThe anti-tumor activity of Compound A and Compound B was assessed firstly in an immune-checkpoint blocker resistant DLBCL syngeneic A20 xenograft mouse model as single agent and in combination. […] Body weights and tumor size were measured three times per week. […] The tolerability was assessed by body weight change. […]"}, "[2]": {"tested_on": "regulatory T cells (Treg)", "test": "Analysis of Treg and CD8+ T cells in tumor, spleen and thymus of A20 model", "format": "in vivo, mouse", "protocol": "Sampling procedures: organ and tumor tissues were quickly removed and weighted 3h post the final dose for FACS, IHC (FFPE), and RNA/pretein expression analysis.\nThe anti-tumor activity of Compound A and Compound B was assessed firstly in an immune-checkpoint blocker resistant DLBCL syngeneic A20 xenograft mouse model as single agent and in combination. A20 cells were inoculated subcutaneously at the right flank of female BALB/c mice for tumor development. The treatment was started when the average tumor size reached about 116 mm^3. Mice were allocated randomly into experimental groups according to their tumor sizes and being treated from day 12 after tumor cell inoculation. Cpd A was dosed at 14 mg/kg and Cpd B at 200 μg/mouse intravenously with the schedule indicated in FIG. 1 A. Treatment groups were: control antibody (ctrl Ab), vehicle control (vehicle), compound A monotherapy (Cpd. A), Cpd. B monotherapy, 3 combination groups with different dosing schedules. Body weights and tumor size were measured three times per week. Tumor growth curve (FIG. 1B), tumor weight at the end of treatment (FIG. 1C) and tumor response (FIG. 1D) were used as anti-tumor activity endpoints. The tolerability was assessed by body weight change. […]"}, "CT26 colorectal cancer": {"tested_on": "CT26 colorectal cancer", "test": "Anti-tumor efficacy in syngeneic CT26 colorectal cancer mouse model", "format": "in vivo", "settings": "CT26 (KRASmut, non-MSIhigh) model, monotherapy", "protocol": "as §1, §2\nTherefore, the anti-tumor activity of Compound A and Compound B was assessed in the mouse syngeneic CT26 (KRASmut, non-MSIhig^h) colorectal cancer xenograft model as single agent and in combination. […]"}}, "note": "Structures can show the parent of a compound that is named as a salt.", "data": [{"compound": "COc1c(OCCCN2CCOCC2)ccc2c1N=C(NC(=O)c1cnc(N)nc1)N1CCN=C21", "note": "[Cpd A, 2-amino-N-[7-methoxy-8-(3-morpholin-4-ylpropoxy)-2,3-dihydroimid-azo[1,2-c]quinazolin-5-yl]pyrimidine-5-carboxamide dihydrochloride]", "values": [{"measurement": "relative tumor growth inhibition (TGI %)", "setting": "[1]", "value": 78, "unit": "%"}, {"measurement": "effect on Treg in thymus and spleen", "setting": "[2]; A20 model, thymus and spleen", "value": "minimal or no effects"}, {"measurement": "effect on Treg population in tumors", "setting": "[2]; A20 tumors, Treg among CD4+ T cells", "value": "specifically reduce the Treg population in tumors"}, {"measurement": "TGI", "setting": "CT26 colorectal cancer", "value": 71, "unit": "%"}]}]}
